The values that follow come from PMC10401645 (ACS Chemical Neuroscience, 2023).

Experiment [1] deals with T1, 5-HT2A (Homo sapiens, UniProt P28223). Description: NanoBiT miniGαq recruitment assay at 5-HT2A. The settings on record: 2 h AUC; for EC50: miniGαq EC50 (nM) (95% CI); for EC50 / pEC50: LSD as reference agonist; for pEC50: miniGαq pEC50 (95% CI).
Target sequence in this assay (P28223 whole entry): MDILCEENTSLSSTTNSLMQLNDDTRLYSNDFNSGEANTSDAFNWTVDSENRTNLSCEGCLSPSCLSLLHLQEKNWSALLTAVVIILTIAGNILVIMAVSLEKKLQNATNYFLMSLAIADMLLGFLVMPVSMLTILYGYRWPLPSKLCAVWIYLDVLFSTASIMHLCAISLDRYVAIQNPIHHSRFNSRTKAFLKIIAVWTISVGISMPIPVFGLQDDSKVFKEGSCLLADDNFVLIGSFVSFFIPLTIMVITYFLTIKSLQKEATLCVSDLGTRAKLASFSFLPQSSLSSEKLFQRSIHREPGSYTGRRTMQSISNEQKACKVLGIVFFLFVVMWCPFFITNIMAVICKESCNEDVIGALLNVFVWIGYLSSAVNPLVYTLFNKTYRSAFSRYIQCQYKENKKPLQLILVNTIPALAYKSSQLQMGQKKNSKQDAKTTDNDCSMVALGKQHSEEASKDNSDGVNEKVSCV
The next experiment relates to 5-HT2A receptor. Description: Bias factor. As to conditions: LSD as reference agonist, 2 h AUC; positive = βarr2 preference.
The target of experiment [2] is T1, 5-HT2A. Description: NanoBiT βarr2 recruitment assay at 5-HT2A. As to conditions: 2 h AUC; for EC50: β-arrestin2 EC50 (nM) (95% CI).
Target sequence in this assay (P28223 whole entry): as above
Target sequence in this assay (P32121 whole entry partner): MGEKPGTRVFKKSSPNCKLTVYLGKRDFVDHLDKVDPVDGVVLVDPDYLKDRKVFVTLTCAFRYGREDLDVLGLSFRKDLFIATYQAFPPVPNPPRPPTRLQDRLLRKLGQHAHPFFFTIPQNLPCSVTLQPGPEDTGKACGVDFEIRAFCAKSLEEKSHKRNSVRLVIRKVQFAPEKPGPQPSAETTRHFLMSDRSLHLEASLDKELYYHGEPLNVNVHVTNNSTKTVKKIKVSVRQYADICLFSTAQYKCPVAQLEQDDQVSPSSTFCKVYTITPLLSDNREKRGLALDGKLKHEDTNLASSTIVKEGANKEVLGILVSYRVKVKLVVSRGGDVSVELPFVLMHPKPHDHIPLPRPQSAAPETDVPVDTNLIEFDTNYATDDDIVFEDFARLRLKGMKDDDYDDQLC
Experiment [3] concerns the target T1, 5-HT2A. As to conditions: PI hydrolysis assay; cited from earlier work.
Target sequence in this assay (P28223 whole entry, species assumed): as the sequence (P28223 whole entry) above
Target sequence in this assay (P32121 whole entry partner, species assumed): as the sequence (P32121 whole entry partner) above

pEC50: −log10 of the molar value. Where two headings read alike, the source gives them in different places.

As usually defined, the EC50 is the concentration at which the effect is half-maximal. Take `COc1cc([N+](=O)[O-])c(OC)cc1CCN.Cl` [2C-N (1g), 2-(2,5-Dimethoxy-4-nitrophenyl)ethan-1-amine Hydrochloride]: the EC50 came out at 92.5 nM on 5-HT2A [1] and 32.2 nM on 5-HT2A [2] (LSD as reference agonist). Besides, the “β (bias factor)” value with 5-HT2A receptor came out at 0.305.
As to `COc1cc(SC)c(OC)cc1CCN.Cl` [2C-T (1e), 2-(2,5-Dimethoxy-4-(methylthio)phenyl)ethan-1-amine Hydrochloride], the EC50 was 37.1 nM on 5-HT2A [1] and 13.1 nM on 5-HT2A [2] (LSD as reference agonist). Also, the “β (bias factor)” value with 5-HT2A receptor was 0.343.
On to `CCCSc1cc(OC)c(CCNCc2ccccc2O)cc1OC.Cl` [25T7-NBOH (2c), 2-(((2,5-Dimethoxy-4-(propylthio)phenethyl)amino)methyl)phenol Hydrochloride], for which the values for the concentration for a half-maximal effect (EC50) at 5-HT2A [1] and on 5-HT2A [2] (LSD as reference agonist) were 17.5 nM and 13.9 nM, respectively. Moreover, the “β (bias factor)” value in the experiment with 5-HT2A receptor was determined as 0.209.
Taken in the same sequence, the figures for `CCCSc1cc(OC)c(CCNCc2ccccc2OC)cc1OC.Cl` [25T7-NBOMe (2d), 2-(2,5-Dimethoxy-4-(propylthio)phenyl)-N-(2-methoxybenzyl)ethan-1-amine Hydrochloride] were 11.3 nM, 7.42 nM and 0.281.
With `COc1cc([N+](=O)[O-])c(OC)cc1CCNCc1ccccc1OC.Cl` [25N-NBOMe (2f), 2-(2,5-Dimethoxy-4-nitrophenyl)-N-(2-methoxybenzyl)ethan-1-amine Hydrochloride], the results for the 50% effective concentration (EC50) entry at 5-HT2A [3], on 5-HT2A [1] and at 5-HT2A [2] (LSD as reference agonist) were “sub-nanomolar”, 2.53 nM and 1.09 nM, respectively. Besides, the “β (bias factor)” value in the experiment on 5-HT2A receptor was found to be 0.374.
Consider `COc1cc(SC)c(OC)cc1CC(C)N.Cl` (centres unmarked) [DOT (1h), 1-(2,5-Dimethoxy-4-(methylthio)phenyl)propan-2-amine Hydrochloride], for which the results for the EC50 on 5-HT2A [1] and on 5-HT2A [2] (LSD as reference agonist) were 65.8 nM and 14.5 nM, respectively. Also, the “β (bias factor)” value in the experiment with 5-HT2A receptor is recorded as 0.436.
Regarding `COc1cc(SC)c(OC)cc1CCNCc1ccccc1OC.Cl` [25T-NBOMe (2b), 2-(2,5-Dimethoxy-4-(methylthio)phenyl)-N-(2-methoxybenzyl)ethan-1-amine Hydrochloride], the EC50 at 5-HT2A [1] came to 4.22 nM; at 5-HT2A [2] (LSD as reference agonist), 2.05 nM. In addition, the “β (bias factor)” value with 5-HT2A receptor stood at 0.332.
The like results for `CCCSc1cc(OC)c(CC(C)N)cc1OC.Cl` (centres unmarked) [DOT-7 (1i), 1-(2,5-Dimethoxy-4-(propylthio)phenyl)propan-2-amine Hydrochloride] were, in that order, 7.63 nM, 2.18 nM and 0.305.
In the case of `CCOCc1cc(OC)c(CCN)cc1OC.Cl` [1d, 2-(4-(Ethoxymethyl)-2,5-dimethoxyphenyl)ethan-1-amine Hydrochloride], the EC50 on 5-HT2A [1] is 75 nM; at 5-HT2A [2] (LSD as reference agonist) it was 26.4 nM. In addition, the “β (bias factor)” value in the experiment on 5-HT2A receptor is given as 0.323.
At 5-HT2A [1], `COc1cc([N+](=O)[O-])c(OC)cc1CCNCc1ccccc1O.Cl` [25N-NBOH (2e), 2-(((2,5-Dimethoxy-4-nitrophenethyl)amino)methyl)phenol Hydrochloride] displayed an EC50 of 1.73 nM. In addition, in the experiment with 5-HT2A receptor, the “β (bias factor)” value was determined as 0.454. For the same compound, on 5-HT2A [2] (LSD as reference agonist), the “β-arrestin2 EC50 (nM) (95% CI)” value is given as “sub-nanomolar” and the EC50 stood at 0.662 nM.
For orientation: pEC50 means the negative decadic logarithm of the EC50, by convention in mol/L. A lower pEC50 goes with a large EC50. Take `CCCSc1cc(OC)c(CCN)cc1OC.Cl` [2C-T-7 (1f), 2-(2,5-Dimethoxy-4-(propylthio)phenyl)ethan-1-amine Hydrochloride]: the EC50 on 5-HT2A [1] was 14.3 nM; on 5-HT2A [2] (LSD as reference agonist) it was 4.99 nM. This compound also gave a pEC50 on 5-HT2A [1] of 7.85. Further, in the experiment on 5-HT2A receptor, the “β (bias factor)” value is 0.291.
Regarding `CCN(CC)C(=O)[C@@H]1C=C2c3cccc4[nH]cc(c34)C[C@H]2N(C)C1` [LSD, lysergic acid diethylamide, reference compound], the “miniGαq Emax (%) (95% CI)” value on 5-HT2A [1] (normalized to Emax of LSD) was 98.4 (90.4–107) %. Further, in the experiment with 5-HT2A receptor, the “β (bias factor)” value was 0. Further, the “β-arrestin2 Emax (%) (95% CI)” value at 5-HT2A [2] (normalized to Emax of LSD) was 99.4 (92.5–106) %.
Take `COc1cc(CCN)c(OC)cc1C.Cl` [2C-D (1b), 2-(2,5-Dimethoxy-4-methylphenyl)ethan-1-amine Hydrochloride]: the 50% effective concentration (EC50) at 5-HT2A [1] is 59.4 nM; on 5-HT2A [2] (LSD as reference agonist) it was 16.4 nM. Also, in the experiment with 5-HT2A receptor, the “β (bias factor)” value is listed as 0.372.
Taken in the same sequence, the figures for `COc1cc(SC)c(OC)cc1CCNCc1ccccc1O.Cl` [25T-NBOH (2a), 2-(((2,5-Dimethoxy-4-(methylthio)phenethyl)amino)methyl)phenol Hydrochloride] were 4.45 nM, 1.94 nM and 0.447.
`COc1cc([N+](=O)[O-])c(OC)cc1CCNCc1cccc2c1OCO2.Cl` [25N-NBMD (2h), N-(Benzo[d][1,3]dioxol-4-ylmethyl)-2-(2,5-dimethoxy-4-nitrophenyl)ethan-1-amine Hydrochloride]: the concentration for a half-maximal effect (EC50) is 9.32 nM at 5-HT2A [1] and 2 nM on 5-HT2A [2] (LSD as reference agonist). For the same compound, the “β (bias factor)” value with 5-HT2A receptor came out at 0.791.
Turning to `CCCc1cc(OC)c(CCN)cc1OC.Cl` [2C-P (1c), 2-(2,5-Dimethoxy-4-propylphenyl)ethan-1-amine Hydrochloride], on 5-HT2A [1], the half-maximal effective concentration (EC50) turned out to be 37.6 nM and the pEC50 was 7.43. Further, the “β (bias factor)” value in the experiment on 5-HT2A receptor stood at 0.313. The compound further came in with an EC50 on 5-HT2A [2] (LSD as reference agonist) of 10.2 nM.
As to `COc1cc(CCN)c(OC)cc1C#N.Cl` [2C-CN (1j), 4-(2-Aminoethyl)-2,5-dimethoxybenzonitrile Hydrochloride], the concentration giving a half-maximal response (EC50) is 503 nM on 5-HT2A [1] and 174 nM at 5-HT2A [2] (LSD as reference agonist). The “β (bias factor)” value with 5-HT2A receptor is listed as 0.412.
Taken in the same sequence, the figures for `COc1cc([N+](=O)[O-])c(OC)cc1CCNCc1ccccc1F.Cl` [25N-NBF (2g), 2-(2,5-Dimethoxy-4-nitrophenyl)-N-(2-fluorobenzyl)ethan-1-amine Hydrochloride] were 74.7 nM, 14.2 nM and 0.858.
As for `NCCc1c[nH]c2ccc(O)cc12` [5-HT, 5-hydroxytryptamine, reference compound], the “β (bias factor)” value with 5-HT2A receptor is 0.680.
